Values of other authors, collected in US12208072B2, “Compositions for removing necrotic or infected tissues from body surface lesions and from oral cavity” (DEBx Medical Holding B.V., priority 2019, dated 2025).

How the values were obtained:
[1] = for Ka1: first dissociation constant; for Ka2: second dissociation constant
[2] = 25° C.

Compound	Ka1 [1]	Ka2 [1]	pKa [2]
O=C(O)CCC(=O)O [Succinic]	6.21 × 10^−5	2.31 × 10^−6	–
O=C(O)CC(O)C(=O)O (stereo not drawn) [Malic]	3.48 × 10^−4	8.00 × 10^−6	–
O=C(O)O [Carbonic]	4.44 × 10^−7	4.69 × 10^−11	–
OB(O)O [Boric]	5.81 × 10^−10	–	–
OCl [Hypochlorous]	3.0 × 10^−8	–	–
Anilinium ion	2.50 × 10^−5	–	–
O=[N+]([O-])O [Nitric]	–	–	−1.4
OP(O)O [Phosphorous]	3 × 10^−2	1.62 × 10^−7	–
